According to patent US20250213563A1, “SUBSTITUTED PYRIMIDIN-4(3H)-ONES FOR USE IN TREATING CANCER” (NAVIRE PHARMA, INC., priority 2021, published 2025):

Columns and labels:
HCC827-ER CDX model = experiment: Monotherapy anti-tumor activity, CDX model; type: in vivo, immunocompromised mice; conditions: 100 mg/kg daily orally, 21 to 33 days; MET^amp, resistant to EGFR inhibitor
Protocol: (§1) In vivo efficacy studies were conducted to evaluate the monotherapy anti-tumor activity of Compound (10b) across a panel of cell line-derived xenograft (CDX) models. […] Significant anti-tumor efficacy was also observed in two CDX models with acquired resistance to EGFR inhibitors.

MIA PaCa-2 CDX model = experiment: Monotherapy anti-tumor activity, CDX model; type: in vivo, immunocompromised mice; conditions: 100 mg/kg daily orally, 21 to 33 days; KRAS^G12C
Protocol: as §1

KYSE-520 model = experiment: Monotherapy anti-tumor activity, CDX model; type: in vivo, immunocompromised mice; conditions: 100 mg/kg daily orally, 21 to 33 days; EGFR^amp
Protocol: as §1

NCI-H1975-OR CDX model = experiment: Monotherapy anti-tumor activity, CDX model; type: in vivo, immunocompromised mice; conditions: 100 mg/kg daily orally, 21 to 33 days; EGFR^L858R, EGFR^T790M, EGFR^C797S
Protocol: as §1

NCI-H358 CDX model = experiment: Monotherapy anti-tumor activity, CDX model; type: in vivo, immunocompromised mice; conditions: 100 mg/kg daily orally, 21 to 33 days; KRAS^G12C
Protocol: as §1

KYSE-520 = experiment: DUSP6 mRNA levels (qPCR); type: cell-based; conditions: Homo sapiens; KYSE-520, EGFR^amp
Protocol: (§2) The potency of Compound (10b) in a panel of human tumor cell lines with active MAPK signaling was assessed. Cell viability in a 3D culture system was assessed by measuring CellTiter-Glo (CTG) luminescence following 8 days of treatment with nine concentrations of Compound (10b). MAPK pathway signaling was assessed by measuring pERK protein levels and DUSP6 mRNA levels by homogeneous time resolved fluorescence (HTRF) and quantitative polymerase chain reaction (qPCR), respectively. […] These viability effects correlated with pERK inhibition (Table 2, FIG. 6B) and DUSP6 inhibition (FIG. 6C).

NCI-H358 = experiment: DUSP6 mRNA levels (qPCR); type: cell-based; conditions: Homo sapiens; NCI-H358, KRAS^G12C
Protocol: as §2

[1] = Single-dose pharmacokinetics, Sprague Dawley rat; type: in vivo, male); conditions: for AUC(0-t): read-out: AUC0→24
Protocol: The pharmacokinetic (PK) parameters of Compound (10b) (freebase) were determined following single intravenous (IV) and oral (PO) administration in female CD-1 mouse, female C57BL/6 mouse (PO only), male Sprague Dawley rat, male Beagle dog, and male Cynomolgus monkey. Additional evaluation of the PK properties of Compound (10b) was obtained following single dose PO administration in female CD-1 mouse, male Sprague Dawley rat and male Beagle dog over a dose range spanning 10 to 300 mg/kg (mouse and rat) and 1 to 100 mg/kg (dog). The intravenous dose solutions were prepared in 20% DMSO-60% PEG400-20% water and the oral dose solutions as suspensions in 0.5% methylcellulose in water, unless otherwise noted. Plasma concentration profiles were generated from serial sampling in individual animals up to 24 hours post dose, except for the studies in mice where composite sampling methods were used (i.e. 3 sampling times per mouse; 9 mice per group). […] Exposures increased with increasing dose level across species, in a dose-proportional manner in mouse and dog, and in a greater than dose-proportional manner in rat (80× increase in AUC with a 30× increase in dosage).

[2] = Monotherapy studies across panel of CDX models, tolerability; type: in vivo, immunocompromised mice; conditions: 100 mg/kg daily orally, 21 to 33 days, all CDX models
Protocol: as §1

[3] = Phase 1/1B first-in-human study, safety and PK (Cohorts 1-5); type: in vivo; set-up: Cmax/D / AUC/D: unit not given beside the values; conditions: for AUC/D: calculated using AUClast; for AUC(0-t) / Cmax / Tmax / half-life: human, plasma
Excerpt: The initial results were from Cohorts 1-5 of the Phase 1/1B First-in-Human Study of Example 6.
No safety findings impacting the risk or benefit of compound (10b) reported in the 19 patients dosed. Nine (9) treatment-emergent serious adverse events (SAEs) were reported in 7 patients, none of which were deemed related to the treatment with compound (10b).

[4] = male, Sprague Dawley, rat, plasma, IV 0.3 mg/kg, free base
[5] = male, Sprague Dawley, rat, plasma, oral 10 mg/kg, free base
[6] = 250 mg QD, C1D1, N=2 (1 subject excluded)
[7] = oral, 80 mg, 80 mg QD, C1D1, N=1
[8] = oral, 80 mg, 80 mg QD, C2D1, N=1
[9] = oral, 150 mg, 150 mg QD, C1D1, N=3
[10] = oral, 150 mg, 150 mg QD, C2D1, N=3
[11] = oral, 250 mg, 250 mg QD, C1D1, N=2 (1 subject excluded)
[12] = oral, 250 mg, 250 mg QD, C2D1, N=1
[13] = oral, 400 mg, 400 mg QD, C1D1, N=5
[14] = oral, 400 mg, 400 mg QD, C2D1, N=3
[15] = oral, 550 mg, 550 mg QD, C1D1, N=6

Cc1c(N2CCC3(CC2)CO[C@@H](C)[C@H]3N)nc(C)n(-c2cccc(Cl)c2Cl)c1=O (atropisomer, axis not shown; (Ra)) [Compound (10b), 6-((3S,4S)-4-amino-3-methyl-2-oxa-8-azaspiro[4.5]decan-8-yl)-3-(Ra)-(2,3-dichlorophenyl)-2,5-dimethylpyrimidin-4(3H)-one]
TGI (HCC827-ER CDX model): 84% | tumor growth inhibition (TGI) (MIA PaCa-2 CDX model): 74% | TGI (KYSE-520 model): 77% | mean tumor regression (NCI-H1975-OR CDX model): 87% | mean tumor regression (NCI-H358 CDX model): 50% | IC50 (KYSE-520): 60 nM | IC50 (NCI-H358): 820 nM | half-life [1, 4]: 9.18 h | AUC(0-t) [1, 4]: 3.27 µM·h | clearance ([1]; male, Sprague Dawley, rat, plasma, IV 0.3 mg/kg, free base, read-out: Clp (converted)): 10.2 mL/min/kg | Vd ([1]; male, Sprague Dawley, rat, plasma, IV 0.3 mg/kg, free base, read-out: Vdss): 6.05 L/kg | Cmax [1, 5]: 3.05 µM | AUC(0-t) [1, 5]: 19.1 µM·h | Tmax ([1]; male, Sprague Dawley, rat, plasma, oral 10 mg/kg, free base, read-out: Tmax (mean)): 0.92 h | Tmax ([1]; male, Sprague Dawley, rat, plasma, oral 300 mg/kg, read-out: mean Tmax): ≤ 8 h | F ([1]; oral 10 mg/kg, free base): 51.2% | increase in AUC ([1]; oral, with a 30× increase in dosage (10 to 300 mg/kg)): 80 × | impact of treatment on body weight [2]: no impact | tolerability [2]: well tolerated | Cmax/D ([3]; 80 mg QD, C1D1, N=1): 5.06 | AUC/D ([3]; 80 mg QD, C1D1, N=1): 61.1 | P/T Ratio ([3]; 80 mg QD, C2D1, N=1): 6.82 | Cmax/D ([3]; 150 mg QD, C1D1, N=3): 4.34 | AUC/D ([3]; 150 mg QD, C1D1, N=3): 64.3 | P/T Ratio ([3]; 150 mg QD, C2D1, N=3): 3.19 | Cmax/D [3, 6]: 3.19 | AUC/D [3, 6]: 42.4 | P/T Ratio ([3]; 250 mg QD, C2D1, N=1): 2.81 | Cmax/D ([3]; 400 mg QD, C1D1, N=5): 3.85 | AUC/D ([3]; 400 mg QD, C1D1, N=5): 47.0 | P/T Ratio ([3]; 400 mg QD, C2D1, N=3): 3.42 | Cmax/D ([3]; 550 mg QD, C1D1, N=6): 4.63 | AUC/D ([3]; 550 mg QD, C1D1, N=6): 68.6 | Number of patients (n = 19) with TEAE: Constipation ([3]; Cohorts 1-5): 1 | Number of patients (n = 19) with TEAE: Diarrhea ([3]; Cohorts 1-5): 5 | Number of patients (n = 19) with TEAE: Edema ([3]; Cohorts 1-5): 4 | Number of patients (n = 19) with TEAE: LFT increases ([3]; Cohorts 1-5): 2 | Number of patients (n = 19) with TEAE: LVEF decrease ([3]; Cohorts 1-5): 1 | Number of patients (n = 19) with TEAE: Nausea/vomiting ([3]; Cohorts 1-5): 4 | Number of patients (n = 19) with TEAE: Rash ([3]; Cohorts 1-5): 2 | adverse events leading to study discontinuation ([3]; Cohorts 1-5): No adverse events (AEs) led to study discontinuation | dose-limiting toxicity (DLTs) ([3]; Cohorts 1-5): no dose-limiting toxicity and None | number of patients with treatment-emergent SAEs ([3]; Cohorts 1-5, 19 patients dosed): 7 | number of treatment-emergent serious adverse events (SAEs) ([3]; Cohorts 1-5, 19 patients dosed): 9 | treatment-emergent SAEs deemed related to the treatment ([3]; Cohorts 1-5, 19 patients dosed): none | tolerability ([3]; Cohorts 1-5: 80, 150, 250, 400, 550 mg once daily, 19 patients): well tolerated | AUC(0-t) [3, 7]: 4890 ng·h/mL | Cmax [3, 7]: 405 ng/mL | Tmax [3, 7]: 2 h | AUC(0-t) [3, 8]: 6290 ng·h/mL | Cmax [3, 8]: 622 ng/mL | Tmax [3, 8]: 1 h | half-life ([3]; oral, 80 mg, 80 mg QD, C2D1, N=1, read-out: t1/2 (converted)): 10 h | AUC(0-t) [3, 9]: 9650 ng·h/mL | Cmax [3, 9]: 651 ng/mL | Tmax [3, 9]: 2 h | half-life ([3]; oral, 150 mg, 150 mg QD, C2D1, N = 1, read-out: t1/2 (converted)): 10.1 h | AUC(0-t) [3, 10]: 18200 ng·h/mL | Cmax [3, 10]: 1120 ng/mL | Tmax [3, 10]: 3.33 h | half-life ([3]; oral, 250 mg, 250 mg QD, C1D1, N = 1, read-out: t1/2 (converted)): 9.44 h | AUC(0-t) [3, 11]: 10600 ng·h/mL | Tmax [3, 11]: 3 h | Cmax ([3]; oral, 250 mg, 250 mg QD, C1D1, N=2 (1 subject with active gastritis excluded)): 797 ng/mL | AUC(0-t) [3, 12]: 21600 ng·h/mL | Cmax [3, 12]: 1380 ng/mL | Tmax [3, 12]: 2 h | half-life ([3]; oral, 400 mg, 400 mg QD, C1D1, N = 1, read-out: t1/2 (converted)): 10.1 h | AUC(0-t) [3, 13]: 18800 ng·h/mL | Cmax [3, 13]: 1540 ng/mL | Tmax [3, 13]: 3 h | half-life ([3]; oral, 400 mg, 400 mg QD, C2D1, N = 1, in parentheses: interpret with caution (large extrapolated AUC), read-out: t1/2 (converted)): 12.3 h | AUC(0-t) [3, 14]: 32000 ng·h/mL | Cmax [3, 14]: 2270 ng/mL | Tmax [3, 14]: 3 h | AUC(0-t) [3, 15]: 37700 ng·h/mL | Cmax [3, 15]: 2550 ng/mL | Tmax [3, 15]: 2.67 h | half-life ([3]; oral, read-out: Human Half life): 10 to 16 h | half-life ([3]; po, 80 mg, 80 mg QD, C1D1, N=1, in parentheses: interpret with caution (large extrapolated AUC), read-out: t1/2 (converted)): 14.9 h | half-life ([3]; po, 150 mg, 150 mg QD, C1D1, N=3, in parentheses: interpret with caution (large extrapolated AUC), read-out: t1/2 (converted)): 15.6 h | half-life ([3]; po, 550 mg, 550 mg QD, C1D1, N=6, in parentheses: interpret with caution (large extrapolated AUC), read-out: t1/2 (converted)): 13.5 h
